In PubChem BioAssay (NCI):
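Step 1: Grow cells in 96-well plates. Step 2: Expose to compound for 48 hours at 5 concentrations. Step 3: Interpolate endpoints linearly; if unreached, use highest concentration. TGI: total growth inhibition.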

Experiments:
Test in all cases: inhibition of tumour cell growth, NCI panel, 48 h
[1] = test system: M14 melanoma
[2] = test system: UACC-62 melanoma
[3] = test system: CCRF-CEM leukemia
[4] = test system: HCT-116 colon
[5] = test system: BT-549 breast
[6] = test system: IGROV1 ovarian
[7] = test system: SF-539 CNS
[8] = test system: NCI-H460 lung
[9] = test system: SW-620 colon
[10] = test system: HT29 colon
[11] = test system: HCT-15 colon
[12] = test system: MDA-MB-435
[13] = test system: T-47D breast
[14] = test system: SK-MEL-28 melanoma
[15] = test system: KM12 colon
[16] = test system: MDA-N
[17] = test system: MALME-3M melanoma
[18] = test system: PC-3 prostate
[19] = test system: OVCAR-3 ovarian
[20] = test system: A498 renal
[21] = test system: OVCAR-8 ovarian
[22] = test system: TK-10 renal
[23] = test system: MDA-MB-231 breast
[24] = test system: CAKI-1 renal
[25] = test system: MOLT-4 leukemia
[26] = test system: NCI-H23 lung
[27] = test system: U251 CNS
[28] = test system: HS 578T breast
[29] = test system: HOP-92 NSCLC
[30] = test system: OVCAR-4 ovarian
[31] = test system: DU-145 prostate
[32] = test system: MCF7 breast
[33] = test system: SK-OV-3 ovarian
[34] = test system: HL-60(TB) leukemia
[35] = test system: RXF 393 renal
[36] = test system: SF-295 CNS
[37] = test system: SN12C renal
[38] = test system: ACHN renal
[39] = test system: HCC-2998 colon
[40] = test system: 786-0 renal
[41] = test system: OVCAR-5 ovarian
[42] = test system: A549 NSCLC
[43] = test system: UO-31 renal
[44] = test system: NCI-H226 lung
[45] = test system: EKVX NSCLC
[46] = test system: SK-MEL-2 melanoma
[47] = test system: UACC-257 melanoma
[48] = test system: COLO 205 colon
[49] = test system: K-562 leukemia
[50] = test system: SNB-75 CNS
[51] = test system: NCI/ADR-RES ovarian
[52] = test system: SF-268 CNS
[53] = test system: LOX IMVI melanoma
[54] = test system: SK-MEL-5 melanoma
[55] = test system: RPMI-8226 leukemia
[56] = test system: SNB-19 CNS
[57] = test system: HOP-62 NSCLC
[58] = test system: NCI-H522 lung

C[C@]12CC[C@@H]3c4cc(Br)c(O)c(Br)c4CC[C@H]3[C@@H]1CCC2=O
TGI [1]: > 100 µM | TGI [2]: > 100 µM | TGI [3]: > 100 µM | TGI [4]: > 100 µM | TGI [5]: 57.7 µM | TGI [6]: > 100 µM | TGI [7]: 39.3 µM | TGI [8]: 48.9 µM | TGI [9]: > 100 µM | TGI [10]: > 100 µM | TGI [11]: 26.1 µM | TGI [12]: > 100 µM | TGI [13]: > 100 µM | TGI [14]: > 100 µM | TGI [15]: > 100 µM | TGI [16]: > 100 µM | TGI [17]: > 100 µM | TGI [18]: > 100 µM | TGI [19]: 31.4 µM | TGI [20]: > 100 µM | TGI [21]: 39.5 µM | TGI [22]: 34.5 µM | TGI [23]: > 100 µM | TGI [24]: 38.9 µM | TGI [25]: 80.6 µM | TGI [26]: 26.7 µM | TGI [27]: 36.5 µM | TGI [28]: 52.2 µM | TGI [29]: > 100 µM | TGI [30]: 41.9 µM | TGI [31]: > 100 µM | TGI [32]: 43.9 µM | TGI [33]: 95.7 µM | TGI [34]: > 100 µM | TGI [35]: 36.7 µM | TGI [36]: 38.1 µM | TGI [37]: 65.1 µM | TGI [38]: 26.9 µM | TGI [39]: 26.9 µM | TGI [40]: 46.4 µM | TGI [41]: 65.2 µM | TGI [42]: 36.2 µM | TGI [43]: 24.2 µM | TGI [44]: 26 µM | TGI [45]: 74.8 µM | TGI [46]: 38.3 µM | TGI [47]: 56.1 µM | TGI [48]: > 100 µM | TGI [49]: > 100 µM | TGI [50]: 33.3 µM | TGI [51]: 36.9 µM | TGI [52]: 54.3 µM | TGI [53]: 71.9 µM

CC(=O)NC1C(OCc2ccccc2)OC(CO)C(O)C1OCC(=O)N1CCCC1C(=O)N[C@@H](CCC(=O)NCCNCCNc1c2ccccc2nc2cccc([N+](=O)[O-])c12)C(N)=O (some centres undefined)
TGI [1]: 6.4 µM | TGI [2]: 15.5 µM | TGI [3]: 6.22 µM | TGI [54]: 3380 nM | TGI [4]: 5.26 µM | TGI [5]: 18.9 µM | TGI [6]: 14.5 µM | TGI [7]: 10.4 µM | TGI [8]: 6.63 µM | TGI [9]: 24.5 µM | TGI [10]: 9.02 µM | TGI [11]: 11.8 µM | TGI [12]: 5.63 µM | TGI [13]: 93.6 µM | TGI [14]: 18.2 µM | TGI [15]: 15.6 µM | TGI [16]: 6.17 µM | TGI [17]: 7.35 µM | TGI [18]: 13.7 µM | TGI [55]: 3290 nM | TGI [19]: 20.4 µM | TGI [20]: 9.21 µM | TGI [21]: 15.4 µM | TGI [22]: 21.4 µM | TGI [23]: 9.03 µM | TGI [24]: 16.5 µM | TGI [25]: > 100 µM | TGI [26]: 10.6 µM | TGI [27]: 12.4 µM | TGI [28]: 23.2 µM | TGI [29]: 5.61 µM | TGI [30]: 14.1 µM | TGI [31]: > 21.2 µM | TGI [32]: 19.9 µM | TGI [33]: 83.3 µM | TGI [56]: 26.1 µM | TGI [34]: > 39.5 µM | TGI [35]: 6.58 µM | TGI [57]: 11.7 µM | TGI [36]: 28.6 µM | TGI [37]: 10.6 µM | TGI [38]: 15.3 µM | TGI [39]: 8.46 µM | TGI [40]: 9.17 µM | TGI [41]: 23.1 µM | TGI [42]: 9.83 µM | TGI [58]: 3960 nM | TGI [43]: 14.8 µM | TGI [44]: 33.8 µM | TGI [45]: 26.6 µM | TGI [46]: 10.8 µM | TGI [47]: 15.6 µM | TGI [48]: 4.97 µM | TGI [49]: > 100 µM | TGI [50]: 24.8 µM | TGI [51]: 33.5 µM | TGI [52]: 25.1 µM | TGI [53]: 20.1 µM

COc1ccc2c(c1)c(=O)c1c(NCCN(C)C)ccc3c(=O)n(CCN(C)C)c(=O)n2c31
TGI [1]: 0.835 µM | TGI [2]: 0.984 µM | TGI [54]: 594 nM | TGI [4]: 1.06 µM | TGI [5]: 3.22 µM | TGI [6]: 1.2 µM | TGI [8]: 1.46 µM | TGI [10]: 1.39 µM | TGI [11]: 2.62 µM | TGI [12]: 0.538 µM | TGI [13]: 5.77 µM | TGI [14]: 3.71 µM | TGI [15]: 0.659 µM | TGI [16]: 0.254 µM | TGI [17]: 1.02 µM | TGI [18]: 0.816 µM | TGI [55]: 300 nM | TGI [19]: 2.11 µM | TGI [20]: 1.35 µM | TGI [21]: 3.1 µM | TGI [22]: 3.45 µM | TGI [23]: 0.855 µM | TGI [24]: 0.599 µM | TGI [26]: 0.315 µM | TGI [27]: 2.29 µM | TGI [28]: 0.841 µM | TGI [29]: 0.791 µM | TGI [30]: 1.7 µM | TGI [31]: 1.23 µM | TGI [32]: 4.75 µM | TGI [33]: 11.9 µM | TGI [56]: 4.3 µM | TGI [34]: 0.569 µM | TGI [57]: 1.78 µM | TGI [36]: 12 µM | TGI [37]: 0.594 µM | TGI [38]: 3.85 µM | TGI [39]: 0.569 µM | TGI [40]: 0.87 µM | TGI [41]: 12.6 µM | TGI [42]: 10.2 µM | TGI [58]: 310 nM | TGI [43]: 1.03 µM | TGI [44]: 0.892 µM | TGI [45]: 1.31 µM | TGI [46]: 0.415 µM | TGI [47]: 0.804 µM | TGI [48]: 0.247 µM | TGI [49]: 0.0354 µM | TGI [50]: 0.719 µM | TGI [51]: 3.63 µM | TGI [52]: 2.13 µM | TGI [53]: 1.22 µM
